Laboratory results as given in patent publication US20180237441A1, “Chemical Compounds” (GlaxoSmithKline Intellectual Property (No.2) Limited, priority 2015, published 2018).
Like-named read-outs stand apart in the source and are kept apart here.

Molecular target: T1, PERK (Homo sapiens, UniProt Q9NZJ5)
T1 sequence (Q9NZJ5 30-1116): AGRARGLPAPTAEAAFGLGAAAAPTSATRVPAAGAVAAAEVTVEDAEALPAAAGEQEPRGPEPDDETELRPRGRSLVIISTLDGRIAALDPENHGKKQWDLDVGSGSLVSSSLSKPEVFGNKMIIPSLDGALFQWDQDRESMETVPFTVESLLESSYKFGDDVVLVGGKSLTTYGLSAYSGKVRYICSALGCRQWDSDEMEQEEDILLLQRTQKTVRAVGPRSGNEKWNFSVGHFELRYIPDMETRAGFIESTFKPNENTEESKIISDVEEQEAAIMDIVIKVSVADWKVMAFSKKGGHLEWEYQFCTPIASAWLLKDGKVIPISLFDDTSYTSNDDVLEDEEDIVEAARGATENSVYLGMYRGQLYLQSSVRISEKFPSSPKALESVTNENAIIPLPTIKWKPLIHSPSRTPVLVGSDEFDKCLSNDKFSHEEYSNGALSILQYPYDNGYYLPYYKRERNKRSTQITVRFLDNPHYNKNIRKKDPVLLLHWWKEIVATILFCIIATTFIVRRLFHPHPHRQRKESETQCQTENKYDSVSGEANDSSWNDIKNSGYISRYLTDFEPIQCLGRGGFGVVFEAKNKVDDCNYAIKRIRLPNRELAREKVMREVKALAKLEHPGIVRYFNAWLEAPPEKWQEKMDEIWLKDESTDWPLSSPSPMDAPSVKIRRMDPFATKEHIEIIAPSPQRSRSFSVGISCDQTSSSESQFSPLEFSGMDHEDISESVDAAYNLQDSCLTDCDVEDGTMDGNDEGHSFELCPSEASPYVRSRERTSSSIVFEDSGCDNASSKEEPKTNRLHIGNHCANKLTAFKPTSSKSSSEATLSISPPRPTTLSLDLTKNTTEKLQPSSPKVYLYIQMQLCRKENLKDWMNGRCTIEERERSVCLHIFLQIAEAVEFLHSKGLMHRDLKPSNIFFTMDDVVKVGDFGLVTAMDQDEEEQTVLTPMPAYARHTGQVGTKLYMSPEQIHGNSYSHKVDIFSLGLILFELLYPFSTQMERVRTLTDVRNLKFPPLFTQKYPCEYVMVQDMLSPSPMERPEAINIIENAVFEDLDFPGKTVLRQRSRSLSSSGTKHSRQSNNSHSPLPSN
Experiment: PERK enzyme assay (HTRF)
Assay type: biochemical
Settings: at least one experimental run
Summary of the method: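 HTRF read-out after 2 h of EDTA-quenched reactions, detecting phospho-eIF2α with Eu/APC reagents, gave IC50 values. Reaction: 0.75 nM GST-PERK, 30–60 min compound pre-incubation (max 1% DMSO), then 60 min with 40 nM biotin-eIF2α and 500 μM ATP, HEPES pH 7.5 buffer.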

[1] = PERK Enzyme (500 μM ATP) IC50, read-out: PERK Activity
[2] = 500 μM ATP, read-out: PERK Enzyme (500 μM ATP) IC50

Compound	IC50 [1] [µM]	IC50 [2] [µM]
CN1C(=O)N(c2ccc(-c3cn(C)c4ncnc(N)c34)c(F)c2)CC1c1cc(F)c(F)cc1F (single isomer, unassigned) [Example 159, 1-(4-(4-amino-7-methyl-7H-pyrrolo[2,3-d]pyrimidin-5-yl)-3-fluorophenyl)-3-methyl-4-(2,4,5-trifluorophenyl)imidazolidin-2-one]	0.1 to 1	–
Cc1nc(N)c2c(-c3ccc(N4CC(c5ccc(F)c(F)c5)N(C)C4=O)cc3F)cn(C)c2n1 (stereo not shown) [Example 78, 1-(4-(4-amino-2,7-dimethyl-7H-pyrrolo[2,3-d]pyrimidin-5-yl)-3-fluorophenyl)-4-(3,4-difluorophenyl)-3-methylimidazolidin-2-one]	< 0.1	–
CCN1C(=O)N(c2ccc(-c3cn(C)c4ncnc(N)c34)cn2)CC1c1cc(F)ccc1F (stereo not shown) [Example 41, 1-(5-(4-amino-7-methyl-7H-pyrrolo[2,3-d]pyrimidin-5-yl)pyridin-2-yl)-4-(2,5-difluorophenyl)-3-ethylimidazolidin-2-one]	0.1 to 1	–
Cc1cc(C)cc(C2CC(=O)N(c3ccc(-c4cn(C)c5ncnc(N)c45)c(F)c3)C2)c1 (stereo not shown) [Example 30, 1-(4-(4-amino-7-methyl-7H-pyrrolo[2,3-d]pyrimidin-5-yl)-3-fluorophenyl)-4-(3,5-dimethylphenyl)pyrrolidin-2-one]	< 0.1	–
CN1C(=O)N(c2ccc(-c3cn(C)c4ncnc(N)c34)c(F)c2)CC1c1cc(F)c(F)cc1F (stereo not shown) [Example 156, 1-(4-(4-amino-7-methyl-7H-pyrrolo[2,3-d]pyrimidin-5-yl)-3-fluorophenyl)-3-methyl-4-(2,4,5-trifluorophenyl)imidazolidin-2-one]	< 0.1	–
CN1C(=O)N(c2ccc(-c3cn(C4CC4)c4ncnc(N)c34)c(F)c2)CC1c1cc(F)cc(F)c1F (single isomer, unassigned) [Example 143, 1-(4-(4-amino-7-cyclopropyl-7H-pyrrolo[2,3-d]pyrimidin-5-yl)-3-fluorophenyl)-3-methyl-4-(2,3,5-trifluorophenyl)imidazolidin-2-one]	0.1 to 1	–
CN1C(=O)N(c2ccc(-c3cn(C4CC4)c4ncnc(N)c34)c(F)c2)CC1c1ccccc1 (single isomer, unassigned) [Example 165, 1-(4-(4-amino-7-cyclopropyl-7H-pyrrolo[2,3-d]pyrimidin-5-yl)-3-fluorophenyl)-3-methyl-4-phenylimidazolidin-2-one]	< 0.1	0.004
CCN1C(=O)N(c2ccc(-c3cn(C(C)C)c4ncnc(N)c34)c(F)c2)CC1c1cc(F)ccc1F (stereo not shown) [Example 106, 1-(4-(4-amino-7-isopropyl-7H-pyrrolo[2,3-d]pyrimidin-5-yl)-3-fluorophenyl)-4-(2,5-difluorophenyl)-3-ethylimidazolidin-2-one]	0.1 to 1	–
CCN1C(=O)N(c2ccc(-c3cn(C)c4ncnc(N)c34)c(F)c2)CC1c1cccc(Cl)c1F (stereo not shown) [Example 22, 1-(4-(4-amino-7-methyl-7H-pyrrolo[2,3-d]pyrimidin-5-yl)-3-fluorophenyl)-4-(3-chloro-2-fluorophenyl)-3-ethylimidazolidin-2-one]	0.1 to 1	–
Cc1nc(N)c2c(-c3ccc(N4CC(c5ccc(F)cc5F)N(C)C4=O)cc3F)c(C)n(C)c2n1 (single isomer, unassigned) [Example 10, 1-(4-(4-amino-2,6,7-trimethyl-7H-pyrrolo[2,3-d]pyrimidin-5-yl)-3-fluorophenyl)-4-(2,4-difluorophenyl)-3-methylimidazolidin-2-one]	> 1	–
Cc1nc(N)c2c(-c3ccc(N4CC(c5ccc(F)cc5F)N(C)C4=O)cc3F)cn(C3CC3)c2n1 (single isomer, unassigned) [Example 9, 1-(4-(4-amino-7-cyclopropyl-2-methyl-7H-pyrrolo[2,3-d]pyrimidin-5-yl)-3-fluorophenyl)-4-(2,4-difluorophenyl)-3-methylimidazolidin-2-one]	> 1	–
CN1C(=O)N(c2ccc(-c3cn(C)c4ncnc(N)c34)c(F)c2)CC1c1cc(F)cc(F)c1 (stereo not shown) [Example 25, 1-(4-(4-amino-7-methyl-7H-pyrrolo[2,3-d]pyrimidin-5-yl)-3-fluorophenyl)-4-(3,5-difluorophenyl)-3-methylimidazolidin-2-one]	< 0.1	0.0742
CN1C(=O)N(c2ccc(-c3cn(C)c4ncnc(N)c34)c(F)c2)CC1c1cc(F)cc(F)c1 (single isomer, unassigned) [Example 100, 1-(4-(4-amino-7-methyl-7H-pyrrolo[2,3-d]pyrimidin-5-yl)-3-fluorophenyl)-4-(3,5-difluorophenyl)-3-methylimidazolidin-2-one]	< 0.1	0.003
Cc1nc(N)c2c(-c3ccc(N4CC(c5cc(F)ccc5F)N(C)C4=O)cc3F)cn(C)c2n1 (single isomer, unassigned) [Example 38, 1-(4-(4-amino-2,7-dimethyl-7H-pyrrolo[2,3-d]pyrimidin-5-yl)-3-fluorophenyl)-4-(2,5-difluorophenyl)-3-methylimidazolidin-2-one]	> 1	–
CN1C(=O)N(c2ccc(-c3cn(C)c4ncnc(N)c34)c(Cl)c2)CC1c1cc(F)cc(F)c1 (single isomer, unassigned) [Example 128, 1-(4-(4-amino-7-methyl-7H-pyrrolo[2,3-d]pyrimidin-5-yl)-3-chlorophenyl)-4-(3,5-difluorophenyl)-3-methylimidazolidin-2-one]	< 0.1	–
CN1C(=O)N(c2ccc(-c3cn(C4CC4)c4ncnc(N)c34)c(Cl)c2)CC1c1cc(F)cc(F)c1 (single isomer, unassigned) [Example 129, 1-(4-(4-amino-7-cyclopropyl-7H-pyrrolo[2,3-d]pyrimidin-5-yl)-3-chlorophenyl)-4-(3,5-difluorophenyl)-3-methylimidazolidin-2-one]	< 0.1	–
Cc1nc(N)c2c(-c3ccc(N4CC(c5ccc(F)cc5F)N(C)C4=O)cc3F)cn(C(C)C)c2n1 (single isomer, unassigned) [Example 95, 1-(4-(4-amino-7-isopropyl-2-methyl-7H-pyrrolo[2,3-d]pyrimidin-5-yl)-3-fluorophenyl)-4-(2,4-difluorophenyl)-3-methylimidazolidin-2-one]	0.1 to 1	–
CN1C(=O)N(c2ccc(-c3cn(C4CC4)c4ncnc(N)c34)c(F)c2)CC1c1ccc(F)c(F)c1 (single isomer, unassigned) [Example 116, 1-(4-(4-amino-7-cyclopropyl-7H-pyrrolo[2,3-d]pyrimidin-5-yl)-3-fluorophenyl)-4-(3,4-difluorophenyl)-3-methylimidazolidin-2-one]	< 0.1	–
CCN1C(=O)N(c2ccc(-c3cn(C)c4ncnc(N)c34)c(F)c2)CC1c1cc(C2CC2)ccc1F (stereo not shown) [Example 48, 1-(4-(4-amino-7-methyl-7H-pyrrolo[2,3-d]pyrimidin-5-yl)-3-fluorophenyl)-4-(5-cyclopropyl-2-fluorophenyl)-3-ethylimidazolidin-2-one]	0.1 to 1	–
Cc1nc(N)c2c(-c3ccc(N4CC(c5c(F)cc(F)cc5F)N(C)C4=O)cc3F)cn(C)c2n1 (single isomer, unassigned) [Example 71, 1-(4-(4-amino-2,7-dimethyl-7H-pyrrolo[2,3-d]pyrimidin-5-yl)-3-fluorophenyl)-3-methyl-4-(2,4,6-trifluorophenyl)imidazolidin-2-one]	0.1 to 1	–
CN1C(=O)N(c2ccc(-c3cn(C)c4ncnc(N)c34)c(F)c2)CC1c1cc(F)cc(F)c1F (single isomer, unassigned) [Example 140, 1-(4-(4-amino-7-methyl-7H-pyrrolo[2,3-d]pyrimidin-5-yl)-3-fluorophenyl)-3-methyl-4-(2,3,5-trifluorophenyl)imidazolidin-2-one]	< 0.1	–
CN1C(=O)N(c2ccc(-c3cn(C4CC4)c4ncnc(N)c34)c(F)c2)CC1c1cc(F)ccc1F (single isomer, unassigned) [Example 146, 1-(4-(4-amino-7-cyclopropyl-7H-pyrrolo[2,3-d]pyrimidin-5-yl)-3-fluorophenyl)-4-(2,5-difluorophenyl)-3-methylimidazolidin-2-one]	< 0.1	–
